# Results as given in ChEMBL document CHEMBL1134746, “[3-cis-3,5-Dimethyl-(1-piperazinyl)alkyl]-bis-(4'-fluorophenyl)amine analogues as novel probes for the dopamine transporter” (Bioorg Med Chem Lett, 2001).
# Experiments:
# [1] = target: Norepinephrine transporter (Rattus norvegicus, UniProt Q9WTR4); test: Binding affinity at norepinephrine transporter using [3H]nisoxetine as radioligand from rat brain
# [2] = target: Sodium-dependent dopamine transporter (Rattus norvegicus, UniProt P23977); test: Binding affinity at Dopamine transporter by displacing [3H]WIN-35428 from rat caudate putamen; assay type: tissue-based
# Sequence of Sodium-dependent dopamine transporter (P23977 whole entry): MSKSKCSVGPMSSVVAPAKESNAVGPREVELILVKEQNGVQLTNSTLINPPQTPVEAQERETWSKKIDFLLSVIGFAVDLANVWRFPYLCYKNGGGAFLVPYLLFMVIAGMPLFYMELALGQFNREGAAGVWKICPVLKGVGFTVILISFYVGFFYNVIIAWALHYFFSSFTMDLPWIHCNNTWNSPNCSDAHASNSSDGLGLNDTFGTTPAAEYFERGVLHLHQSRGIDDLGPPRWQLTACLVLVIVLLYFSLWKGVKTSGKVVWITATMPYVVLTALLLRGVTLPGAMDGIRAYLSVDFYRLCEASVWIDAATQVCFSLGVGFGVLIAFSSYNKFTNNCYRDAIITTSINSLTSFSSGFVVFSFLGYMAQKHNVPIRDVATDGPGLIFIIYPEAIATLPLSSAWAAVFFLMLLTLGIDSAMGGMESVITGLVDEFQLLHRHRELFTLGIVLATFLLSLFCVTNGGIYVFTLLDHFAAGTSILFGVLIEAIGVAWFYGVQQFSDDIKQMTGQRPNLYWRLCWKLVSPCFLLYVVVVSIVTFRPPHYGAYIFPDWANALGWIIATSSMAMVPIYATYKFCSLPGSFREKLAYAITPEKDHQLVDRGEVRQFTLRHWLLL
# [3] = Selectivity ratio for DAT to SERT evaluated; assay type: functional
# [4] = target: Sodium-dependent serotonin transporter (Rattus norvegicus, UniProt P31652); test: Binding affinity at Serotonin transporter using [3H]citalopram as radioligand from rat brain
# Sequence of Sodium-dependent serotonin transporter (P31652 whole entry): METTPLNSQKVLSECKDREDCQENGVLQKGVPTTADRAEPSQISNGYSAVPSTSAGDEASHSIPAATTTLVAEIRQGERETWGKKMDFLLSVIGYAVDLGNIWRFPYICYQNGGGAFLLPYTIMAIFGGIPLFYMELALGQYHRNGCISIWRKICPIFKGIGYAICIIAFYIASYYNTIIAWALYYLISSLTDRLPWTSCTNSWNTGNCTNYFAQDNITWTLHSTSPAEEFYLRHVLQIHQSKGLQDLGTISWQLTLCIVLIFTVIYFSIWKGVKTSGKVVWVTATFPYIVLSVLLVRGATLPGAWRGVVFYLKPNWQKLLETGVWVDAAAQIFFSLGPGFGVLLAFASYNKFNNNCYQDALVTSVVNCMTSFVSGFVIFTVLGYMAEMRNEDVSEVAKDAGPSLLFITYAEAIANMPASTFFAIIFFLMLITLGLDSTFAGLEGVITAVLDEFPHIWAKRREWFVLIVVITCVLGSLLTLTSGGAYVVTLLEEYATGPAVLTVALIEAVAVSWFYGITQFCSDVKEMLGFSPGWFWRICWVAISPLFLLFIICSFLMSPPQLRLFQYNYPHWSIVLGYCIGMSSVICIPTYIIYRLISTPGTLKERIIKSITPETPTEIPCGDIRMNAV
# [5] = Selectivity ratio of DAT to that of NET receptor; assay type: functional
# [6] = test system: Mus musculus; test: Tested for rate of horizontal activity during a 30-min period after administration of compound at a concentration of 30 mg/kg; assay type: functional
# [7] = test system: Mus musculus; test: Tested for rate of horizontal activity during a 30-min period after administration of compound at a concentration of 10 mg/kg; assay type: functional
# [8] = test system: Mus musculus; test: Tested for rate of horizontal activity during a 30-min period after administration of compound at a concentration of 3 mg/kg; assay type: functional
# [9] = test system: Mus musculus; test: Tested for rate of horizontal activity during a 30-min period after administration of compound at a concentration of 100 mg/kg; assay type: functional
# [10] = test system: Monoamine transporters; serotonin & dopamine (Rattus norvegicus); test: Selectivity ratio for DAT to SERT evaluated
# [11] = test system: Monoamine transporters; Norepinephrine & dopamine (Rattus norvegicus); test: Selectivity ratio of DAT to that of NET receptor
# [12] = test system: Mus musculus; test: Tested for rate of horizontal activity during a 30-min period after administration of compound at a concentration of 5 mg/kg; assay type: functional
# [13] = test system: Mus musculus; test: Tested for rate of horizontal activity during a 30-min period after administration of compound at a concentration of 50 mg/kg; assay type: functional
# [14] = test system: Mus musculus; test: Tested for rate of horizontal activity during a 30-min period after administration of compound at a concentration of 1.0 mg/kg; assay type: functional
# [15] = test system: Mus musculus; test: Tested for rate of horizontal activity during a 30-min period after administration of compound at a concentration of 0.1 mg/kg; assay type: functional
# [16] = test system: Mus musculus; test: Tested for rate of horizontal activity during a 30-min period after administration of compound at a concentration of 0.3 mg/kg; assay type: functional
# Sequence of Norepinephrine transporter (Q9WTR4 whole entry): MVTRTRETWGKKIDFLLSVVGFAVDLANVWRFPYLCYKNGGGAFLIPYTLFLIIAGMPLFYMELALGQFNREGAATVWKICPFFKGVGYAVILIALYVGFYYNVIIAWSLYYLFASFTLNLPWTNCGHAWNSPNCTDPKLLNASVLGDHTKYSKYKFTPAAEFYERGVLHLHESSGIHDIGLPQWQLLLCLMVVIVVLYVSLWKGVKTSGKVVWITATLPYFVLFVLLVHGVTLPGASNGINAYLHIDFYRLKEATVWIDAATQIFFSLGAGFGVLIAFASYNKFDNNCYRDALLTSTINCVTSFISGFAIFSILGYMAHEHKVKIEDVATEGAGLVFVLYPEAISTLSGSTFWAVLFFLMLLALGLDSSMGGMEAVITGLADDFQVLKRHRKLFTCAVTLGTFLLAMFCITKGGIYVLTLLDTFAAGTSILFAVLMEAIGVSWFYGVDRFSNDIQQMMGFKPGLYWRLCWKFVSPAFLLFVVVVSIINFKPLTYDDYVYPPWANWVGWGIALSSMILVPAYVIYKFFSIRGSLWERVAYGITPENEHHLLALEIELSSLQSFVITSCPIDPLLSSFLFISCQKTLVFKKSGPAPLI
Compound,Ki [1],Ki [2],Ki [4],Horizontal activity [6],Horizontal activity [7],Horizontal activity [8],Horizontal activity [9],Ratio [10],Ratio [11],also measured
C[C@@H]1CN(CCCN(c2ccccc2)c2ccccc2)C[C@@H](C)N1CCc1ccc(Cl)c(Cl)c1,> 30000 nM,261 nM,5010 nM,,,,,,,Ratio [3]: 19; Ratio [5]: > 115
Fc1ccc(C(OCCN2CCN(CCCc3ccccc3)CC2)c2ccc(F)cc2)cc1 [VANOXERINE],,,,400 Counts min-1,300 Counts min-1,175 Counts min-1,175 Counts min-1,,,
C[C@@H]1CN(CCCN(c2ccccc2)c2ccccc2)C[C@@H](C)N1,6810 nM,813 nM,70900 nM,,,,,87,8,
C[C@@H]1CN(CCCN(c2ccc(F)cc2)c2ccc(F)cc2)C[C@@H](C)N1,16900 nM,83.2 nM,13100 nM,,,,,158,203,
"COC(=O)[C@@H]1C2CC[C@@H](C[C@@H]1OC(=O)c1ccccc1)N2C (single isomer, unassigned) [COCAINE]",,,,600 Counts min-1,500 Counts min-1,,,,,Horizontal activity [12]: 300 Counts min-1; Horizontal activity [13]: 550 Counts min-1
"CC1CN(CCCn2c3ccccc3c3ccccc32)C[C@@H](C)N1 (single isomer, unassigned) [RIMCAZOLE]",,,1710 nM,~220 Counts min-1,~250 Counts min-1,~175 Counts min-1,~0 Counts min-1,,,
C[C@@H]1CN(CCCN(c2ccc(F)cc2)c2ccc(F)cc2)C[C@@H](C)N1CCc1ccc(Cl)c(Cl)c1,> 100000 nM,131 nM,4300 nM,,,,,,,
C[C@@H]1CN(CCCN(c2ccccc2)c2ccccc2)C[C@@H](C)N1CCCc1ccccc1,3640 nM,61 nM,1220 nM,,,,,20,60,
C[C@@H]1CN(CCCN(c2ccc(F)cc2)c2ccc(F)cc2)C[C@@H](C)N1CCCc1ccccc1,1020 nM,17.6 nM,2130 nM,~215 Counts min-1,~250 Counts min-1,~240 Counts min-1,~50 Counts min-1,121,60,Horizontal activity [14]: ~250 Counts min-1; Horizontal activity [15]: ~200 Counts min-1; Horizontal activity [16]: ~210 Counts min-1
